pKd: −log10 of the molar value.
target: T1, Stimulator of interferon genes protein [1-379,R71H,G230A,H232R,R293Q] (Homo sapiens, UniProt Q86WV6, G230A/H232R/R293Q/R71H); assay: Surface Plasmon Resonance (SPR)
T1 construct: 1-379
Experimental: Briefly, approximately 20 nmol of recombinant STING protein in 1×TBS buffer (25 mM Tris-HCl, pH 7.5, 150 mM NaCl, 5 mM DTT) was mixed with of EZ-Link™ Sulfo-NHS-LC-LC-Biotin (Thermofisher Scientific, cat #21338) at a molar ratio of 1 to 0.6 and incubated on ice for 2 hours. To remove any unreacted biotin reagent, protein/biotin mixture was passed through a Superdex 75 (10/300 GL) column equilibrated with 10 mM HEPES, pH7.4, 150 mM NaCl, 5 mM DTT, 5%[v/v] glycerol. A protein peak containing biotinylated huSTING protein was collected and stored in aliquots at −80° C.Streptavidin was simultaneously immobilized in all four channels of a CM5 sensor chip docked in a Biacore instrument (either Biacore S200 or Biacore T200, GE Healthcare) as described previously (Zender 2013). Minimally biotinylated STING protein was captured onto a streptavidin coated chip surface at 8° C. in SPR binding buffer (50 mM HEPES, pH 7.4, 150 mM NaCl, 2%[v/v] DMSO) by gradually injecting in a single channel at a constant flow-rate of 2 μL/min until desired capture level was achieved, typically 3000 to 7000 RU (1 RU=1 pg/mm2).All binding experiments were performed at 8° C. in SPR binding buffer. To determine binding affinity, compound interaction with immobilized STING protein was analysed using dose-response experiments. Fresh 10 mM DMSO solutions of compound were diluted directly into SPR binding buffer typically to a concentration of 50 μM and then further diluted 2-fold or 3-fold aiming for either a 5- or 7-point concentration series range. Each ligand concentration series was injected at a constant flow rate of 60 μL/min with a 90 second association and a 180 second dissociation time.

T1 sequence (Q86WV6 whole entry R71H/G230A/H232R/R293Q, looked up): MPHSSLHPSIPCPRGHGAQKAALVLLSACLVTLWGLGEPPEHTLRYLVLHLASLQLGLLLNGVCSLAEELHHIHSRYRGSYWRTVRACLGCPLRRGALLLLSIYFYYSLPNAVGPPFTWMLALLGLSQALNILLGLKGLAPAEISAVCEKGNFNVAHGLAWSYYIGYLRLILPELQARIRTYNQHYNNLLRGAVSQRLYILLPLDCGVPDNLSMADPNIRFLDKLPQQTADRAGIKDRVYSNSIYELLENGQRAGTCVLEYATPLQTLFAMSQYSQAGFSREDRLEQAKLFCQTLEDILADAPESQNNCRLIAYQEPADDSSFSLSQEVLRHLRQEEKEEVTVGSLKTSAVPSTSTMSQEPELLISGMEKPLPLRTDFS

pKd	SMILES
4.78	COc1c(C(N)=O)ccc2c1nc(-c1ccc(Cl)cc1C(=O)O)n2CCn1c(-c2ccc(Cl)cc2C(=O)O)nc2c(OC)c(C(N)=O)ccc21 [US12415785, Example 1]
4.17	NC(=O)c1ccc2c(c1)nc(-c1ccccc1C(=O)O)n2CCn1c(-c2ccccc2C(=O)O)nc2cc(C(N)=O)ccc21 [US12415785, Example 2]
4.71	NC(=O)c1ccc2c(c1)nc(-c1ccccc1-c1nn[nH]n1)n2CCn1c(-c2ccccc2-c2nnn[nH]2)nc2cc(C(N)=O)ccc21 [US12415785, Example 5]
4.92	COc1c(C(N)=O)ccc2c1nc(-c1ccccc1-c1nn[nH]n1)n2CCn1c(-c2ccccc2-c2nn[nH]n2)nc2c(OC)c(C(N)=O)ccc21 [US12415785, Example 6]
5.58	COc1c(C(N)=O)ccc2c1nc(-c1ccc(Cl)cc1-c1nn[nH]n1)n2CCn1c(-c2ccc(Cl)cc2-c2nn[nH]n2)nc2c(OC)c(C(N)=O)ccc21 [US12415785, Example 9]
6.74	COc1c(C(N)=O)ccc2c1nc(-c1c(F)cccc1C(=O)O)n2CCn1c(-c2c(F)cccc2C(=O)O)nc2c(OC)c(C(N)=O)ccc21 [US12415785, Example 10]
7.11	COc1c(C(N)=O)ccc2c1nc(-c1c(F)cc(Cl)cc1C(=O)O)n2CCn1c(-c2c(F)cc(Cl)cc2C(=O)O)nc2c(OC)c(C(N)=O)ccc21 [US12415785, Example 11]
6.78	COc1c(C(N)=O)ccc2c1nc(-c1c(F)cc(F)cc1C(=O)O)n2CCn1c(-c2c(F)cc(F)cc2C(=O)O)nc2c(OC)c(C(N)=O)ccc21 [US12415785, Example 16]
6.38	COc1c(C(N)=O)ccc2c1nc(-c1ccc(Cl)cc1-c1n[nH]c(=O)o1)n2CCn1c(-c2ccc(Cl)cc2-c2n[nH]c(=O)o2)nc2c(OC)c(C(N)=O)ccc21 [US12415785, Example 17]
6.84	COc1c(C(N)=O)cc(F)c2c1nc(-c1c(F)cc(F)cc1C(=O)O)n2CCn1c(-c2c(F)cc(F)cc2C(=O)O)nc2c(OC)c(C(N)=O)cc(F)c21 [US12415785, Example 18]
8.70	COc1c(C(N)=O)ccc2c1nc(-c1c(I)cccc1C(=O)O)n2CCn1c(-c2c(I)cccc2C(=O)O)nc2c(OC)c(C(N)=O)ccc21 [US12415785, Example 19.1]
4.89	COc1c(C(N)=O)cc(F)c2c1nc(-c1ccc(Cl)cc1C(=O)O)n2CCn1c(-c2ccc(Cl)cc2C(=O)O)nc2c(OC)c(C(N)=O)cc(F)c21 [US12415785, Example 20]
5.96	COC(=O)c1c(Br)cccc1-c1nc2c(OC)c(C(N)=O)ccc2n1CCn1c(-c2cccc(Br)c2C(=O)OC)nc2c(OC)c(C(N)=O)ccc21 [US12415785, Example 21]
8.70	COc1c(C(N)=O)ccc2c1nc(-c1c(Cl)cccc1C(=O)O)n2CCn1c(-c2c(Cl)cccc2C(=O)O)nc2c(OC)c(C(N)=O)ccc21 [US12415785, Example 22]
8.70	COc1c(C(N)=O)ccc2c1nc(-c1c(Cl)cccc1-c1nn[nH]n1)n2CCn1c(-c2c(Cl)cccc2-c2nn[nH]n2)nc2c(OC)c(C(N)=O)ccc21 [US12415785, Example 23]
4.66	COc1c(C(N)=O)ccc2c1nc(-c1ccc(Cl)cc1-c1cn[nH]n1)n2CCn1c(-c2ccc(Cl)cc2-c2cn[nH]n2)nc2c(OC)c(C(N)=O)ccc21 [US12415785, Example 24]
4.71	COc1c(C(N)=O)ccc2c1nc(-c1ccc(C)cc1C(=O)O)n2CCn1c(-c2ccc(C)cc2C(=O)O)nc2c(OC)c(C(N)=O)ccc21 [US12415785, Example 25]

pKd	SMILES
4.49	COc1c(C(N)=O)ccc2c1nc(-c1cc(C)ccc1C(=O)O)n2CCn1c(-c2cc(C)ccc2C(=O)O)nc2c(OC)c(C(N)=O)ccc21 [US12415785, Example 26]
6.03	NC(=O)c1ccc2c(c1)nc(-c1c(Br)cccc1C(=O)O)n2CCn1c(-c2c(Br)cccc2C(=O)O)nc2cc(C(N)=O)ccc21 [US12415785, Example 29.1]
4.05	COc1c(C(N)=O)ccc2c1nc(-c1cnccc1C(=O)O)n2CCn1c(-c2cnccc2C(=O)O)nc2c(OC)c(C(N)=O)ccc21 [US12415785, Example 30]
4.26	COc1c(C(N)=O)ccc2c1nc(-c1ncc(Cl)cc1C(=O)O)n2CCn1c(-c2ncc(Cl)cc2C(=O)O)nc2c(OC)c(C(N)=O)ccc21 [US12415785, Example 31]
4.11	CCc1ccc(-c2nc3c(OC)c(C(N)=O)ccc3n2CCn2c(-c3ccc(CC)cc3C(=O)O)nc3c(OC)c(C(N)=O)ccc32)c(C(=O)O)c1 [US12415785, Example 33]
4.59	COc1c(C(N)=O)ccc2c1nc(-c1ccc(Cl)cc1C(=O)O)n2C/C=C/Cn1c(-c2ccc(Cl)cc2C(=O)O)nc2c(OC)c(C(N)=O)ccc21 [US12415785, Example 34]
4.46	COc1c(C(N)=O)ccc2c1nc(-c1ccc(Cl)cc1C(=O)O)n2CCCn1c(-c2ccc(Cl)cc2C(=O)O)nc2c(OC)c(C(N)=O)ccc21 [US12415785, Example 35]
3.52	NC(=O)c1ccc2c(c1)nc(-c1ccc(Cl)cc1C(=O)O)n2CCn1c(-c2ccc(Cl)cc2C(=O)O)nc2cc(C(N)=O)ccc21 [US12415785, Example 39]
4.19	COc1c(C(N)=O)ccc2c1nc(-c1cccc(Cl)c1-c1nn[nH]n1)n2CCn1c(-c2cccc(Cl)c2-c2nn[nH]n2)nc2c(OC)c(C(N)=O)ccc21 [US12415785, Example 40]
4.08	COc1ccc(-c2nc3c(OC)c(C(N)=O)ccc3n2CCn2c(-c3ccc(OC)cc3C(=O)O)nc3c(OC)c(C(N)=O)ccc32)c(C(=O)O)c1 [US12415785, Example 41]
4.83	COc1c(C(N)=O)ccc2c1nc(-c1cc(Cl)ccc1-c1nn[nH]n1)n2CCn1c(-c2cc(Cl)ccc2-c2nn[nH]n2)nc2c(OC)c(C(N)=O)ccc21 [US12415785, Example 42]
7.02	COc1c(C(N)=O)ccc2c1nc(-c1c(F)cc(F)cc1-c1nn[nH]n1)n2CCn1c(-c2c(F)cc(F)cc2-c2nn[nH]n2)nc2c(OC)c(C(N)=O)ccc21 [US12415785, Example 43]
6.37	COc1c(C(N)=O)ccc2c1nc(-c1c(F)cc(F)cc1-c1n[nH]c(=O)o1)n2CCn1c(-c2c(F)cc(F)cc2-c2n[nH]c(=O)o2)nc2c(OC)c(C(N)=O)ccc21 [US12415785, Example 44]
7.60	COc1c(C(N)=O)ccc2c1nc(-c1c(F)cc(Cl)cc1-c1nn[nH]n1)n2CCn1c(-c2c(F)cc(Cl)cc2-c2nn[nH]n2)nc2c(OC)c(C(N)=O)ccc21 [US12415785, Example 46]
7.52	COc1c(C(N)=O)ccc2c1nc(-c1c(F)cccc1-c1nn[nH]n1)n2CCn1c(-c2c(F)cccc2-c2nn[nH]n2)nc2c(OC)c(C(N)=O)ccc21 [US12415785, Example 48]
7.51	COc1c(C(N)=O)ccc2c1nc(-c1c(F)cccc1-c1n[nH]c(=O)o1)n2CCn1c(-c2c(F)cccc2-c2n[nH]c(=O)o2)nc2c(OC)c(C(N)=O)ccc21 [US12415785, Example 49]
7.85	COc1c(C(N)=O)ccc2c1nc(-c1c(F)cc(Cl)cc1-c1n[nH]c(=O)o1)n2CCn1c(-c2c(F)cc(Cl)cc2-c2n[nH]c(=O)o2)nc2c(OC)c(C(N)=O)ccc21 [US12415785, Example 50]

SMILES	pKd
COc1c(C(N)=O)ccc2c1nc(-c1cc(F)c(F)cc1C(=O)O)n2CCn1c(-c2cc(F)c(F)cc2C(=O)O)nc2c(OC)c(C(N)=O)ccc21 [US12415785, Example 15]	5.20

From BindingDB's records for patent US12415785 (Ctxt, 2025)
